Experimental data as given in the supplement of paper PMC8024199.
± gives the standard deviation of the averaged measurements.

Legend:
Assay in all cases: drug sensitivity score (DSS) (DSS score); higher = more sensitive (stronger growth inhibition); extreme values may be limits of the assay
[1] = tested on: Ba/F3 P210-BCR-ABL1 RUNX1-/- (mouse)
Outline: (§1)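 Mouse Ba/F3 cells carrying P210-BCR-ABL1, CRISPR/Cas9-edited at runx1 exon 4 or edited-control clones, were screened against a 528-compound library on pre-printed 384-well plates. Each compound ran at five concentrations spanning a 10,000-fold range, with 10,000 cells per well in RPMI with 10% FBS for 72 h at 37 °C and 5% CO2. CellTiter-Glo luminescence was scaled between vehicle and positive-control wells. A drug sensitivity score summarised each dose-response, averaged over two replicates.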

[2] = tested on: Ba/F3 P210-BCR-ABL1 RUNX1-/mut (mouse)
Outline: as §1

[3] = tested on: Ba/F3 P210-BCR-ABL1 RUNX1wt/wt control (mouse)
Outline: as §1

| SMILES | drug sensitivity score [1] | drug sensitivity score [2] | drug sensitivity score [3] |
| --- | --- | --- | --- |
| CN[C@@H](C)C(=O)N[C@H](C(=O)N1CCC[C@H]1c1nc(C(=O)c2ccc(F)cc2)cs1)C1CCCCC1 [NVP-LCL161] | 26.4 ± 4.4 | 7.6 ± 8.5 | 23.6 ± 2.8 |
| CN1C(=O)N[C@H](Cc2c[nH]c3c(Cl)cccc23)C1=O [Necrostatin 2] | 0 | 0 | 0 |
| CNc1nc(Nc2cn(C(C)(C)C#N)nc2C)ncc1C(F)(F)F [GNE-0877] | 0 | 0 | 0 |
| CN1CCN(C(=O)c2ccc3cc(CCNc4ncnc5ccc(C#N)cc45)ccc3c2)CC1 [Senexin B] | 0.8 | 1.1 ± 1.6 | 0.15 ± 0.21 |
| CCS(=O)(=O)Nc1ccc(Oc2ccc(F)cc2F)c(-c2cn(C)c(=O)c3[nH]ccc23)c1 [Mivebresib] | 41.35 ± 0.21 | 41 ± 2 | 34 ± 1.3 |
| Cc1cnc(Nc2ccc(OCCN3CCCC3)cc2)nc1Nc1cccc(S(=O)(=O)NC(C)(C)C)c1 [Fedratinib] | 11.7 ± 2 | 10.4 ± 2.7 | 5.8 |
| CC1(C)C(C(=O)Nc2ccc(S(=O)(=O)c3ccc(NC(=O)C4C(C)(C)C4(C)C)cc3)cc2)C1(C)C [BRD7116] | 3.75 ± 2.6 | 0.05 ± 0.071 | 0 |
| CN1CCN(C2CCN(C(=O)Nc3cc(Oc4ccc(NC(=O)C5(C(=O)Nc6ccc(F)cc6)CC5)c(F)c4)ccn3)CC2)CC1 [Golvatinib] | 3.95 ± 2 | 1.8 ± 2 | 0 |
| CNC(=O)c1ccc2cc([C@@]3(O)CCn4cncc43)ccc2c1 [Orteronel] | 0 | 0 | 0 |
| CC1(C)CCC(CN2CCN(c3ccc(C(=O)NS(=O)(=O)c4ccc(NCC5CCOCC5)c([N+](=O)[O-])c4)c(Oc4cnc5[nH]ccc5c4)c3)CC2)=C(c2ccc(Cl)cc2)C1 [Venetoclax] | 0 | 1.05 ± 1.5 | 1.4 ± 1.4 |
| C[C@@H]1CN(CC(=O)Nc2ccc3c(c2)Cc2cccc(-c4cc(=O)cc(N5CCOCC5)o4)c2S3)C[C@H](C)O1 | 6.15 ± 1.8 | 5.3 ± 1.3 | 3.05 ± 0.49 |
| O=C(/C=C/c1cccnc1)NCCCCC1CCN(C(=O)c2ccccc2)CC1 [Daporinad] | 19.4 ± 0.35 | 20.5 ± 4.7 | 15.9 ± 0.71 |
| Cc1c(F)cc(C(=O)NC2CC2)cc1-c1ccc(C(=O)NCC(C)(C)C)cn1 [Losmapimod] | 2.3 ± 2.4 | 1.8 ± 2.5 | 0.15 ± 0.21 |
| CN(c1ncccc1CNc1nc(Nc2ccc3c(c2)CC(=O)N3)ncc1C(F)(F)F)S(C)(=O)=O | 5.7 ± 0.28 | 7.25 ± 1.9 | 4.8 ± 0.57 |
| CN(C)C1CCN(C(=O)c2ccc(NC(=O)Nc3ccc(-c4nc(N5CCOCC5)nc(N5CCOCC5)n4)cc3)cc2)CC1 [Gedatolisib] | 13.6 ± 0.35 | 15.2 ± 0.92 | 4.55 ± 0.071 |
| CN(C(=O)c1ccc(F)cc1C(F)(F)F)C1CCN(c2nnc(-c3ccnn3C)c3ccccc23)CC1 [Taladegib] | 0.85 ± 1.2 | 1.8 ± 2.5 | 0 |
| O=C(Nc1cc(Oc2cc(F)c(NC(=O)C3(C(=O)Nc4ccc(F)cc4)CC3)cc2F)ccn1)C1CC1 [Altiratinib] | 10.8 | 6.8 ± 0.85 | 5.45 ± 0.21 |
| Cc1ccc(-n2nc(C(C)(C)C)cc2NC(=O)Nc2ccc(OCCN3CCOCC3)c3ccccc23)cc1 [Doramapimod] | 3.9 ± 0.57 | 2.85 ± 1.5 | 0 |

| SMILES | drug sensitivity score [1] | drug sensitivity score [2] | drug sensitivity score [3] |
| --- | --- | --- | --- |
| O=C(NC[C@H](O)CN1CCc2ccccc2C1)c1cc(NC2COC2)ncn1 | 7.8 ± 1.3 | 5.2 ± 3.5 | 0 |
| CCS(=O)(=O)c1cccc(-c2cc(C(=O)NC3CCN(C)CC3)c(C)c3[nH]c4ncc(C)cc4c23)c1 [TAK-901] | 5.8 ± 0.99 | 3.55 ± 0.49 | 0 |
| CCCCc1nc2cc(/C=C/C(=O)NO)ccc2n1CCN(CC)CC [Pracinostat] | 20.7 ± 0.57 | 19.4 ± 0.35 | 17.4 ± 0.49 |
| COc1ccc(CCc2nc3cc(-c4c(C)noc4C)ccc3n2C[C@H](C)N2CCOCC2)cc1Cl [SGC-CBP30] | 10.2 ± 2.8 | 12.7 ± 4.6 | 5.5 ± 0.28 |
| COc1cc2c(cc1OCCCN1CCCC1)N=C(N)C21CCC1 [A-366] | 6.1 ± 0.57 | 6.5 ± 3 | 0 |
| COc1cc2ncnc(Nc3cccc(Cl)c3F)c2cc1OC(=O)N1CCN(C)C[C@H]1C [AZD3759] | 0 | 0 | 0 |
| C=CC(=O)Nc1cccc(Oc2nc(Nc3ccc(N4CCN(C)CC4)cc3)nc3ccsc23)c1 [Olmutinib] | 0.65 ± 0.92 | 0.45 ± 0.64 | 0 |
| CNC(=O)[C@@H](NC(=O)[C@H](CC(C)C)[C@H](O)C(=O)NO)C(C)(C)C [Marimastat] | 0 | 0.35 ± 0.49 | 0 |
| O=C(O)CNC(=O)c1c(O)c2ccccc2n(Cc2ccccc2)c1=O [IOX-2] | 0 | 0.3 ± 0.42 | 0 |
| CCOCc1nc2c(N)nc3ccccc3c2n1CC(C)(C)O [Resiquimod] | 3.6 | 3.6 ± 5.1 | 0.15 ± 0.21 |
| CC(C)c1cc(-c2n[nH]c(=O)n2-c2ccc3c(ccn3C)c2)c(O)cc1O [Ganetespib] | 24.8 ± 3.4 | 23.6 ± 2.2 | 19.1 ± 0.21 |
| Cc1sc2c(c1C)C(c1ccc(Cl)cc1)=N[C@@H](CC(=O)NCCCCNC(=O)COc1cccc3c1C(=O)N(C1CCC(=O)NC1=O)C3=O)c1nnc(C)n1-2 (stereo partly drawn) [dBET1] | 18.8 ± 2.1 | 19.1 ± 5.4 | 11.3 ± 1.5 |
| COCCOc1cnc2ccn([C@H](C)c3nnc4c(F)cc(-c5cnn(C)c5)cn34)c(=O)c2c1 [AMG-337] | 0 | 0 | 0 |
| Cn1cnc2c(F)c(Nc3ccc(Br)cc3F)c(C(=O)NOCCO)cc21 [Binimetinib] | 3.3 ± 0.42 | 0.3 ± 0.42 | 0 |
| Cc1cccc(CC(=O)N2CCc3c2ccc(-c2cn(C)c4ncnc(N)c24)c3F)n1 | 1.85 ± 0.49 | 0.55 ± 0.21 | 2.45 ± 0.35 |
| Cc1cc(Nc2nc(N[C@@H](C)c3ncc(F)cn3)ncc2Cl)[nH]n1 [AZD1480] | 0 | 0 | 0 |
| COC[C@H](NC(=O)c1cnc(C)s1)C(=O)N[C@@H](COC)C(=O)N[C@@H](Cc1ccccc1)C(=O)[C@@]1(C)CO1 [Oprozomib] | 22.2 ± 1.3 | 20.5 ± 1.6 | 19.2 ± 0.35 |
| CO[C@@H](C)Cn1c(=O)n(C)c2cnc3ccc(-c4cncc(C(C)(C)O)c4)cc3c21 | 12.9 ± 0.14 | 14.3 ± 1.4 | 10.25 ± 0.071 |
